According to PMC9589254, “Disrupting Cu trafficking as a potential therapy for cancer” (Frontiers in Molecular Biosciences, 2022):
Peptide text beside a SMILES is read from it.

Key:
[1] = target: T1, ATP7B MBD3-4 (Homo sapiens, UniProt P35670); assay: Microscale thermophoresis (MST) binding to MBD3-4; details: for Kd: in the presence of Cu(I) (40 µM), protein 50 nM
T1 construct: […]; made in house; host or cells: E. coli Origami 2
T1 sequence (P35670 234-439): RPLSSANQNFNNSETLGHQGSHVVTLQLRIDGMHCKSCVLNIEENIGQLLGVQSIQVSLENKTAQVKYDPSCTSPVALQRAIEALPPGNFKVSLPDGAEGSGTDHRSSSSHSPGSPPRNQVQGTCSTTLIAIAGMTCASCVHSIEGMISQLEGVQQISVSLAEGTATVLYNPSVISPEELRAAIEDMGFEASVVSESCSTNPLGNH
Description: To better understand the EPR and CD experiments, MST binding experiments were performed. MST is a physical phenomenon whereby biomolecules migrate along a temperature gradient according to their size, hydrodynamic radius, charge, and hydration shell. The target biomolecule is fluorescently labeled and monitored over the course of the experiment. An infra-red laser is used to create a temperature gradient for a given time. Since binding interactions can alter the properties listed above, a binding curve can be created with a ligand titration series. Fixed amounts of labelled MBD3-4 or Atox1 were incubated with increasing concentrations of SMD or KER peptides, in the presence or absence of Cu(I) (Figure 3). […] The measured KD values of the SMD peptide were in the tens of µM range for both Atox1 (39 ± 3 μM) and MBD3-4 (45 ± 4 μM), whereas KER peptide preferentially interacted with Atox1 (20 ± 2 μM). The KD for the interaction with MBD3-4 was slightly higher (36 ± 3 μM).
The labelling was performed with reactive dyes using N-hydroxysuccinimide (NHS)–ester chemistry. The protein concentration was adjusted to 20 μM using HEPES buffer. Briefly, the solid fluorescent dye was dissolved in DMSO at a concentration of about 1.3 mM and mixed thoroughly. Before mixing the protein and dye, the concentration of the dye was adjusted to twice that of the protein using HEPES buffer. Then, the protein and fluorescent dye solutions were mixed at a 1:1 ratio and incubated for 30 min at room temperature in the dark. […] Purity was monitored by measuring the ratio of protein to dye (spectroscopically, for example, by measuring absorption at 280 nm for protein and 650 nm for the dye; molar absorbance: 250,000 M^−1 cm^−1) after the clean-up procedure.
(§1) MBD3-4 and Atox1 were labeled on lysine residues with red fluorescent NT-647-NHS using the NanoTemper labeling kit. […] Normalized fluorescence was detected at a ratio of [Fnorm = Fhot/Finitial]. Fluorescence was measured before IR-laser heating (Finitial) and after a specific IR-laser heating (Fhot) time. […]

[2] = target: T2, Atox1 (Homo sapiens, UniProt O00244); assay: Microscale thermophoresis (MST) binding to Atox1; details: neither in the presence nor in the absence of Cu(I)
T2 construct: made in house; host or cells: E. coli Origami 2 (as for ATP7B MBD3-4)
T2 sequence (O00244 1-68): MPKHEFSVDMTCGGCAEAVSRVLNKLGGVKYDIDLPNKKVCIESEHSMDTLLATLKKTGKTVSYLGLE
Description: To better understand the EPR and CD experiments, MST binding experiments were performed. MST is a physical phenomenon whereby biomolecules migrate along a temperature gradient according to their size, hydrodynamic radius, charge, and hydration shell. The target biomolecule is fluorescently labeled and monitored over the course of the experiment. An infra-red laser is used to create a temperature gradient for a given time. Since binding interactions can alter the properties listed above, a binding curve can be created with a ligand titration series. Fixed amounts of labelled MBD3-4 or Atox1 were incubated with increasing concentrations of SMD or KER peptides, in the presence or absence of Cu(I) (Figure 3). […]
The labelling was performed with reactive dyes using N-hydroxysuccinimide (NHS)–ester chemistry. […] Purity was monitored by measuring the ratio of protein to dye (spectroscopically, for example, by measuring absorption at 280 nm for protein and 650 nm for the dye; molar absorbance: 250,000 M^−1 cm^−1) after the clean-up procedure.
as §1

[3] = test system: HEK293 human kidney cells; assay: Cell toxicity (MTT assay), HEK293; assay type: cell-based; details: copper ions alone, absence of peptides, read-out: LC50 (the source's name)
Description: (§2) HEK293 and MCF7 cells were cultured in Dulbecco’s modified Eagle’s medium (DMEM) high glucose medium, with fetal bovine serum (10%), L-glutamine (1%), and PSNS antibiotic (1%). The HepG2 cell line was cultured in Eagle’s minimum essential medium (EMEM), with fetal bovine serum (10%), L-glutamine (1%) and PSNS antibiotic (1%). The THLE-3 cell line was cultured in BGEM medium according to manufacturer’s instructions. All cell line types were cultured at 37°C with 5% CO2. The culture media was changed every 2 days. At 80% confluence, the cells were harvested using 0.25% trypsin and sub-cultured into 75 cm^2 flasks, 24-well plates, or 96-well plates, according to the experiment. The cells were then treated with a range of peptide concentrations suspended in medium without serum for 24 h. After the 24 h treatment, the various toxicity end points were evaluated in the control and peptide-exposed cells.
(§3) Peptides were introduced at various concentrations (three triplicates per concentration) ranging from 0 to 1 mM and incubated with the different cell lines (HEK293/MCF7/HepG2/THLE-3) for 24 h at 37°C. […] Lysates were transferred to 96-well plates and absorption values were collected using a Synergy plate reader at 570 nm wavelength. […] The absorption of the control (without peptide) was determined at 100%; all peptide concentrations were compared to the control sample. […]

[4] = test system: HepG2 liver cancer cells; assay: Cell toxicity (MTT assay), HepG2; assay type: cell-based; details: copper ions alone, absence of peptides, read-out: LC50 (the source's name)
Description: as §2, §3

[5] = test system: MCF7 breast cancer cells; assay: Cell toxicity (MTT assay), MCF7; assay type: cell-based; details: copper ions alone, absence of peptides, read-out: LC50 (the source's name)
Description: as §2, §3

[6] = target: ATP7B MBD3-4, fluorescently labelled (NT-647-NHS); assay: MST; with Cu(I) 40 uM; labelled protein 50 nM, peptide titrated; 25 mM Na2HPO4 pH 8, 150 mM NaCl, 0.05% Tween 20; 25 C; Monolith NT.115
[7] = target: T3, Atox1, fluorescently labelled (NT-647-NHS) (UniProt O00244 1-68, red fluorescent NT-647-NHS on lysine residues); assay: as above; details: both partners purified
T3 construct: Atox1 copper metallochaperone; also called metallochaperone Atox1; source: E. coli Origami 2, purified as for ATP7B MBD3-4 (chitin beads, intein self-cleaved with DTT)
T3 sequence (looked up): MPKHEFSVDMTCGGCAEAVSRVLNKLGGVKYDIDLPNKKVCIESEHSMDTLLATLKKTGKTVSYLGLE

[8] = target: ATP7B MBD3-4, fluorescently labelled (NT-647-NHS)
[9] = target: T3, Atox1, fluorescently labelled …; assay: cell-based or functional assay

Sequence of ATP7B MBD3-4, fluorescently labelled (NT-647-NHS) (P35670 whole entry): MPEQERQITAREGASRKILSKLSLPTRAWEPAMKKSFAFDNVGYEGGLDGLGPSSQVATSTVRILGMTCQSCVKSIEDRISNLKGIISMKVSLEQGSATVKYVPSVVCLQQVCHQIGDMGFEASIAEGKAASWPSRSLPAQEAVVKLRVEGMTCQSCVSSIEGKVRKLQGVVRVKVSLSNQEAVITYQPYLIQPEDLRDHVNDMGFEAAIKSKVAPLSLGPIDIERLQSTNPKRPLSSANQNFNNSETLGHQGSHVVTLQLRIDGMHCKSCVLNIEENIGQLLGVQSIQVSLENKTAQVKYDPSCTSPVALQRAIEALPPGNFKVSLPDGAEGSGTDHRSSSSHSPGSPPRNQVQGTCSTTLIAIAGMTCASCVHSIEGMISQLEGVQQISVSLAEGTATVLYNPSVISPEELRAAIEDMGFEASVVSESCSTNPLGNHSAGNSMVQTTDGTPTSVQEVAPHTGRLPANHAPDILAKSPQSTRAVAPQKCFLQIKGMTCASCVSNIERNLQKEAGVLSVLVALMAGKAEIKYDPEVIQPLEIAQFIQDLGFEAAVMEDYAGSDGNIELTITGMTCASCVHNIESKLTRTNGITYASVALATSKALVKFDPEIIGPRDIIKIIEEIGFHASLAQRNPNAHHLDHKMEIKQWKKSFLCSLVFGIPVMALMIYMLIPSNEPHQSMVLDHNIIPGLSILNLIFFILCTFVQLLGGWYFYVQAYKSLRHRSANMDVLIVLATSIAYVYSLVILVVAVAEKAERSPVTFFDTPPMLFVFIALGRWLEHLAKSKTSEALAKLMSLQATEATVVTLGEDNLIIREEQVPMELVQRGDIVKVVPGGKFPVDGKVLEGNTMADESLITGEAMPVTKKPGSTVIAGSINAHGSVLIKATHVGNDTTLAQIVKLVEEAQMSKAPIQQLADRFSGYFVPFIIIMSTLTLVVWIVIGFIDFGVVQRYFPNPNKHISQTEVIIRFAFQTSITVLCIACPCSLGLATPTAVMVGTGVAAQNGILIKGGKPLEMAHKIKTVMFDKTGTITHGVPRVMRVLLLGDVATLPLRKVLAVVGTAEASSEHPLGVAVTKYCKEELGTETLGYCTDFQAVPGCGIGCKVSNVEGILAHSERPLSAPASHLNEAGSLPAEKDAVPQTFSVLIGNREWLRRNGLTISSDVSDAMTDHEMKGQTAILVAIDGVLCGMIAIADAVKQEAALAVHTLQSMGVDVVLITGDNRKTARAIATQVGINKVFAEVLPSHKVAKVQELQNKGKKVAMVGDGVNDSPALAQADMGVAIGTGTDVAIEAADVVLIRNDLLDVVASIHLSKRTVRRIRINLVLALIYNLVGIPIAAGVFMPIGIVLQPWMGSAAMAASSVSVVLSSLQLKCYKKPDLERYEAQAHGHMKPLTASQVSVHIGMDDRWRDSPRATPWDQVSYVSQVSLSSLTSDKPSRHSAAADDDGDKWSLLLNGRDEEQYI

## CC[C@H](C)[C@H](NC(=O)[C@H](CO)NC(=O)[C@H](CCSC)NC(=O)[C@H](CC(=O)O)NC(=O)[C@H](CCSC)NC(=O)[C@@H](N)CO)C(=O)N[C@@H](CCC(=O)O)C(N)=O [SMD, SMDMSIE] (H-SMDMSIE-NH2)
[1]
  Kd: 45 ± 4 µM

## GAGAAA [Ala]
[1]; neither in the presence nor in the absence of Cu(I)
  Binding interaction with MBD3-4 (MST): No binding interaction was observed
[2]
  Binding interaction with Atox1 (MST): No binding interaction was observed

## [Cu+] [Cu(I)]
[3]
  CC50: 150 µM
[4]
  CC50: 170 µM
[5]
  CC50: 165 µM

## [Cu+2] [Cu(II)]
[3]
  CC50: 196 µM
[4]
  CC50: 205 µM
[5]
  CC50: 180 µM

## C[C@@H](O)[C@H](NC(=O)[C@H](CCCNC(=N)N)NC(=O)[C@H](CCC(=O)O)NC(=O)[C@@H](N)CCCCN)C(=O)N[C@@H](CO)C(=O)N[C@@H](CCCNC(=N)N)C(N)=O [KER, KERTSR] (H-KERTSR-NH2)
[1]
  Kd: 36 ± 3 µM

B1: KER peptide (peptide)
peptide: KERTSR
notes: Made on rink-amide resin, which would give a C-terminal amide; also called KERTSR; source: synthetic peptide (Fmoc, rink-amide resin, reverse phase HPLC; 99.4% purity)
[6]
  Kd: 36 µM
[7]
  Kd: 20 ± 2 µM
[8]
  intracellular 64Cu content of MCF7 cells 4 h after 64Cu(II) injection, with peptide against without: 3 fold
[9]
  intracellular 64Cu content of MCF7 cells 4 h after 64Cu(II) injection, with peptide against without: 3 fold

B2: SMD peptide (peptide)
peptide: SMDMSIE
notes: Made on rink-amide resin, which would give a C-terminal amide; also called SMDMSIE; source: synthetic peptide (Fmoc, rink-amide resin, reverse phase HPLC; 95.1% purity)
[6]
  Kd: 45 µM
[7]
  Kd: 39 ± 3 µM
[8]
  intracellular 64Cu content of MCF7 cells 4 h after 64Cu(II) injection, with peptide against without: 5 fold
[9]
  intracellular 64Cu content of MCF7 cells 4 h after 64Cu(II) injection, with peptide against without: 5 fold
